Measured values: patent US4105651A (The United States of America as represented by the …, priority 1976, dated 1978)
Read-outs that look alike come from different tables or passages of the source.

Tested on: opiate receptor sites
Excerpt: The tests which were made in the laboratory were of the myenteric plexus-longitudinal muscle of the guinea pig ileum and the vas deferens of the mouse. In the whole animal the rates of onset and recovery are directly related to lipid solubility which facilitates drug movement to and from the brain.

SMILES	agonist activity: inhibition of electrically evoked contractions (guinea pig ileum)	agonist activity: inhibition of electrically evoked contractions (mouse vas deferens)
CC(C)C[C@H](NC(=O)[C@H](Cc1ccccc1)NC(=O)CNC(=O)CNC(=O)[C@@H](N)Cc1ccc(O)cc1)C(=O)O [leucine-enkephalin, H-Tyr-Gly-Gly-Phe-Leu-OH]	dose-related inhibition	dose-related inhibition
CSCC[C@H](NC(=O)[C@H](Cc1ccccc1)NC(=O)CNC(=O)CNC(=O)[C@@H](N)Cc1ccc(O)cc1)C(=O)O [methionine-enkephalin, H-Tyr-Gly-Gly-Phe-Met-OH]	dose-related inhibition	dose-related inhibition
